According to patent US11850266B2, “Cardiomyocytes and compositions and methods for producing the same” (President and Fellows of Harvard College, priority 2019, dated 2023):

Columns and labels:
Format in all cases: cell-based, human
[1] = test system: iPSC-derived cardiomyocytes; test: Imaging quantification of proliferating cardiomyocytes (Ki67, phospho-histone H3); conditions: versus control, non-dissociated cells, FIG. 8
From the text: Cardiomyocytes were differentiated in 12 well plates then fixed and stained in the original plates to minimize potential for selection of cells that survive dissociation. Cells were stained with Ki67/TNNT2/DAPI or phospho-H3/TNNT2/DAPI as described in Immunostaining methods. Images were acquired with a fluorescent microscope. Monolayer regions containing TNNT2+ cells were randomly selected from 5 fields of view in the plate with a 10× objective. The particle analysis feature of ImageJ was used to quantify the number of cells per field of view that were positive for DAPI, Ki67, or pH3. To control for variability across samples, a signal threshold of <500 was set DAPI and pH3 (488 nm) channels and a signal threshold of <600 was set for Ki67 ([…]). Particle sizes between 10-1000 pixels^2 were included in the analysis. The percentage of Ki67+ cells or pH3+ cells out of the total number of cells marked by DAPI and TNNT2 was quantified. A chi-squared test was used to evaluate for statistical significance.

[2] = test system: iPSC-derived cardiomyocytes; test: Immunocytochemistry, sarcomere length; conditions: versus control, BJRiPS-CMs, FIG. 2H
Method: Cells were dissociated from 12 well plates after differentiation with 0.1% trypsin-EDTA and replated into Geltrex-coated 4-chamber microscope slides. Cells were fixed in 4% paraformaldehyde then permeabilized with 0.5% Triton X-100. After blocking with 5% BSA, cells were incubated with primary antibodies (Table 2) for 30 minutes at room temperature followed by incubation with the secondary antibody (Table 2) for 45 minutes at room temperature in the dark. After washing with phosphate buffered saline (PBS), Vectashield mounting agent with DAPI (for slides) or DAPI (for plates) was applied and cells were visualized with a confocal microscope (Zeiss LSM 700). Muscular thin films (MTFs) were stained in a similar manner except DAPI (1 μg/ml) was applied for 5 minutes before rinsing and transferring MTFs into PBS until imaging.

[3] = test system: iPSC-derived cardiomyocytes; test: Calcium transients (Fluo-4 AM) analysis with Vala Kinetic Image Cytometer; conditions: Torin1 treatment, FIG. 14
Method: To perform calcium transients analysis, 50 ul of 10 ug/ml Hoeschst 33258 and 5 μM Fluo-4 AM was added to each well of a 96 well plate and incubated for 10 minutes at 37 degrees. Media was replaced with RPMI without phenol red supplemented with 1:100 Oxyfluor and 10 uM sodium lactate. Isoproterenol (1 μM) was added to the media for isoproterenol experiments. Pacing protocol was 5 seconds delay without pacing followed by 5 seconds pacing at 1 Hz and 5 seconds imaging without pacing. Imaging was performed using the Vala Kinetic Image Cytometer at 30 fps with 33.30 ms exposure at 14.25 intensity. Stimulation pulse was 5 ms with 15V voltage. Data was collected by CyteSeer analysis program.

[4] = test system: TNNT2+ iPSC-derived cardiomyocytes; test: Cell cycle analysis by flow cytometry (Hoechst 33342 / pyronin Y) of TNNT2+ cardiomyocytes
Method: To prepare for differentiation, iPSCs were plated at a density between 20,000 to 80,000 cells (depending on the cell line) per well of a 12-well plate at four days prior to onset of differentiation. Cells were differentiated according to the protocol previously described by Lian et al. with some modifications (FIG. 1A) (1). Basal media was changed from StemFlex to RPMI/B27 on day 0 of differentiation. The GSK3 inhibitor, CHIR99021 (6 μM), was added for 48 hours from day 0 to day 2 of differentiation when cells were approximately 70-80% confluent. The Wnt antagonist IWP4 (5 μM) was added from days 2 to 4 of differentiation. Insulin (10 μg/ml) was added to the media starting on day 7 of differentiation, and media was changed every 2-3 days. In general, higher purity (TNNT2+) cardiomyocytes were observed when beating initiated prior to day 10 of differentiation, therefore only batches with onset of beating between days 7-10 of differentiation were included in this study. Beating cardiomyocytes were treated with Torin1 (200 nM, unless otherwise noted) or vehicle (0.02% dimethylsulfoxide (DMSO)) beginning at ˜2 days after onset of beating for 7 days (media changed with fresh Torin1 or DMSO every 2-3 days), unless otherwise noted. After Torin1 treatment, media was switched back to RPMI/B27/insulin and maintained with media change every 2-3 days until endpoint assay. In a few assays, fatty acids were added in the form of chemically defined lipids (Gibco) diluted 1:1000 simultaneous with Torin1 treatment. In some other assays, fetal bovine serum (10% FBS) was added to cells after completion of Torin treatment for 2-4 days.
Cells were dissociated and 5×10^5 to 1×10^6 cells were used per condition. For cell cycle analysis, 5×10^5 cells per condition were fixed in 70% cold ethanol for at least 2 hours to overnight at −20 degrees C. Cells were stained first with AlexaFluor 647-TNNT2 in Permeabilization Buffer (Thermo) then with Hoechst 33342 (2 μg/ml) and pyronin Y (4 μg/ml) for 20 minutes to distinguish between cells in G0, G1, and S-G2-M phases. For other stains, cells were fixed in eBioscience Intracellular Fixation buffer for 30 minutes followed washing twice in eBioscience Permeabilization Buffer and stained with the appropriate primary antibody (Table 2) in eBioscience FACS Staining buffer for 30-60 minutes. If a secondary antibody was used, cells were incubated with the appropriate secondary antibody (Table 2) for 30-60 minutes. The geometric mean fluorescence intensity (MFI) was quantified for TNNT2 and Kir2.1 antibodies. Data were acquired via a BD LSRII instrument and analyzed using FlowJo software.

[5] = test system: iPSC-derived cardiomyocytes; test: Spontaneous beating rate of cardiomyocytes
Method: The BJRiPS cell line was used to generate preliminary data. BJRiPS cells were differentiated into cardiomyocytes according to previously published protocols (6). After the onset of beating (around day 10), cardiomyocytes were treated with vehicle (DMSO) or different concentrations of rapamycin, Torin1, or Torin2 for different time periods. Beating rate was counted manually. Some cells were harvested after 5-7 days of treatment for flow cytometry analysis. Other cells were harvested after 7 days of treatment for qPCR.

Compound: CCC(=O)N1CCN(c2ccc(-n3c(=O)ccc4cnc5ccc(-c6cnc7ccccc7c6)cc5c43)cc2C(F)(F)F)CC1 [Torin1]
- percentage of Ki67+ cardiomyocytes [1]: significantly decreased
- percentage of pH3+ cardiomyocytes [1]: did not change
- sarcomere length [2]: no differences
- calcium peak rise time, peak decay time and FWHM time [3]: significant decreases
- percentage of Torin1-treated cells in G0 after 10% FBS ([4]; 10% FBS 48 hours starting two days after completion of Torin1, FIG. 1I): significant decrease
- quiescent (G0) cells ([4]; Torin1 200 nM 1 week, vehicle control 24%, FIG. 1G): 48%
- G1 cells ([4]; Torin1 200 nM 1 week, vehicle control 47%, FIG. 1G): 27%
- percentage of quiescent (G0) TNNT2+ cardiomyocytes versus control ([4]; nutlin-3a 10 μM 24 hours, Torin1 200 nM 7 days, or both, BJRiPS-CMs, FIG. 6B): increased the percentage of quiescent (G0) TNNT2+ cardiomyocytes
- percentage of TNNT2+ cardiomyocytes in G1 phase versus control ([4]; nutlin-3a 10 μM 24 hours, Torin1 200 nM 7 days, or both, FIG. 6B): decreased the percentage of TNNT2+ cardiomyocytes in G1 phase
- spontaneous rate of contraction ([5]; Example 1, FIG. 4C): decrease
- beating rate of cardiomyocytes ([5]; Torin1 10, 50, 200 nM, Torin2 200 nM, from day 11 for 4-5 days, FIG. 29): decreased the beating rate
- beating rates at 1 week ([5]; dose-dependent, BJRiPS-CMs, FIG. 29): significantly decreased beating rates
